Measured values reported in patent US20090186915A1, “Compositions and methods for treatment of glioblastoma, gliosarcoma, NSCLC, and head and neck cancer” (Unibioscreen S. A., priority 2006, published 2009).
Like-named read-outs stand apart in the source and are kept apart here.

Legend:
DU-145 [1] = assay: Apoptosis by Annexin V flow cytometry, DU-145; format: cell-based, human
Protocol: We used flow cytometry (according to the protocol found in Mijatovic et al. Neoplasia 2006) to determine the percentages of PC-3 and DU-145 positive cells for both Annexin V and propidium iodide and we observed that a maximum of 10% only of PC-3 or DU-145 cells underwent apoptotic processes following a treatment with 10 μM of the compound produced according to example 2 or example 7.
The determination of the percentage of cells undergoing apoptosis was performed using an Annexin V-FITC Apoptosis Detection Kit (Sigma) following the manufacturer's instructions. Each sample was evaluated in triplicate.

PC-3 = assay: Cell cycle kinetics by flow cytometry (PI), PC-3; format: cell-based, human
Protocol: The cell cycle kinetics of prostate cancer cells left untreated or incubated with UNBS5162 were determined by flow cytometry analysis of propidium iodide (PI) nuclear staining, using previously detailed methodology. Each sample was evaluated in triplicate. Flow cytometry was undertaken using an Epics XL.MCL flow cytometer and the FACScan/CellQuest software system (Becton Dickinson, Miami, Fla.).

Mk-CFC = assay: HALO hematotoxicity assay, human Mk-CFC; format: cell-based; settings: 7 days culture, iATP
Protocol: (§1) Investigation of the hematotoxic potential of UNBS5162 was undertaken by HemoGenix (Colorado Springs, Colo.). The effects of UNBS5162 on stem and progenitor cell populations from murine and human bone marrow were assessed using HALO (Hematopoietic/Hematotoxicity Assay through Luminescence Output) technology. Stem and hematopoietic progenitor cell populations were isolated from mouse and human bone marrow samples, plated at a concentration of 1.0×10^4 cells/well and cultured for 5 and 7 days, respectively, in the presence of growth factors and increasing concentrations of UNBS5162 ranging from 0.5 nM to 50 μM. The proliferative or growth potential of cell populations was determined from intracellular ATP (iATP) concentrations and a luciferin/luciferase bioluminescence signal detection system. All samples were assayed in eight replicates. The results are presented as estimated inhibitory concentration (IC) values.

LoVo = assay: MTT colorimetric assay, LoVo cells; format: cell-based; settings: Homo sapiens, 72 h, 3 days of culturing, mean of six determinations, read-out: IC50 (μM) In Vitro Growth Inhibition
Protocol: (§2) The overall growth of human cancer cell lines was determined by means of the calorimetric MTT (3-[4,5-dimethylthiazol-2-yl]-diphenyl tetrazolium bromide; Sigma) assay, as detailed previously.

Rb, pRb = assay: Western blot of Rb and p-Rb, DU-145; format: cell-based, human; settings: 10 μM
[2] = Body weight of MXT-HI tumor-bearing mice; format: in vivo, female B6D2F1 mice; settings: for Mean body weight: UNBS5162 i.v. (5i × 3w) 10 mg/kg, alone or with 10 gray
DU-145 [3] = assay: Quantitative videomicroscopy, DU-145; format: cell-based, human; settings: 1 μM
Protocol: Use was made of computer-assisted phase-contrast microscopy (quantitative videomicroscopy) in the attempt to elucidate an overall picture of UNBS5162's mechanism of action. […] In addition, 10 μM UNBS5162 caused a marked enlargement in PC-3 cells by the end of the 6-day treatment period compared with the start of the experiment.

[4] = system: murine and human hematopoietic stem and progenitor cells; assay: HALO hematotoxicity assay, overall statement; format: cell-based
Protocol: as §1

LC3-II = LC3-II immunoblot, DU-145; format: cell-based, human; settings: 10 μM
HCT-15 = assay: MTT colorimetric assay, HCT-15 cells; format: cell-based; settings: Homo sapiens, 72 h, 3 days of culturing, mean of six determinations, read-out: IC50 (μM) In Vitro Growth Inhibition
Protocol: as §2

DU-145 [5] = assay: MTT colorimetric assay, DU-145 cells; format: cell-based; settings: Homo sapiens, 72 h, 3 days of culturing, mean of six determinations, read-out: IC50 (μM) In Vitro Growth Inhibition
Protocol: as §2

[6] = system: ets homologous factor (EHF); assay: EHF mRNA by quantitative RT-PCR, DU-145; format: cell-based, human
Protocol: Reverse transcription reactions were carried out in a thermal cycler (Thermocycler; Westburg, Leusden, The Netherlands). The purification of the cDNAs produced was undertaken using the High Pure PCR Product Purification Kit (Roche Diagnostics, Mannheim, Germany) in accordance with the manufacturer's instructions. Quantitative PCR reactions were performed with 50 ng of purified cDNA in a LightCycler thermocycler instrument (Roche Diagnostics) using LCFastart DNA Master SYBR Green 1 (Roche Diagnostics). After amplification, data analysis was carried out by means of the “Fit points” algorithm of the LightCycler quantification software. A standard curve enabled cDNA quantification of samples to be effected. The primers used were provided by Invitrogen and selected using the HYBSIMULATOR software (Advanced Gene Computing Technology, Irvine, Calif.). The primers used were as follows: ets homologous factor (EHF): forward: 5′-[…]-3′; reverse: 5′-CGAACTCTTGGAAAGGGA-3′; E2F1: forward: 5′-[…]-3′; reverse: 5′-GGATGTGGTTCTTGGACTT-3′.

U-373 MG = assay: Cell migration (phase-contrast microscopy); format: cell-based; settings: Homo sapiens, U373 MG, 22 h, read-out: Maximum effects (cell migration); for Emax at 0.1 µM: at 10^−7 M
Protocol: Cells of different cancer lines, i.e. U-373 MG (Glioma cancer) and A549 (Lung cancer) were seeded on culture flask 48 hours before the migration experiment. On the test day, cells were treated with or without the compound of example 2 in closed Falcon dishes containing a buffered medium at a controlled temperature (37.0±0.1° C.) for 12 or 22 hours, as noted in the right column of table 3. The compound of example 2 was used at three non-cytotoxic concentrations (10^−6 M, 10^−7M, 10^−8 M). Migration of the cells was observed by means of a CCD-camera mounted on a phase-contrast microscope. Statistical analysis of the migration, with the non-parametric Mann-Whitney test, was established for 25% and 50% of the most motile cells and for the entire cell population.

CN(C)CCN1C(=O)c2cccc3cc(NC(N)=O)cc(c23)C1=O [UNBS5162, N-{2-[2-(dimethylamino)ethyl]-1,3-dioxo-2,3-dihydro-1H-benzo[de]isoquinolin-5-yl}urea]
cells undergoing apoptotic processes (Annexin V and propidium iodide positive) (DU-145 [1]; 10 μM): ≤ 10%
induction of real (early) apoptosis (DU-145 [1]; flow cytometry): does not induce real (early) apoptosis
late apoptotic and necrotic events (DU-145 [1]; flow cytometry): induces late apoptotic and necrotic events
cell cycle kinetics (PC-3; 1 μM): did not significantly (P>0.05) modify
cell cycle kinetics, G2 block (PC-3; 10 μM for 72 hours): markedly blocked PC-3 cells in their G2 cell cycle phase
cell cycle kinetics (PC-3; chronic 1 μM for 5 days (5×1) or 3 weeks (3w1)): did not notably modify PC-3 cell cycle kinetics
IC50 (Mk-CFC; 168 h): 4.05 µM
IC90 (Mk-CFC; 168 h): 20.1 µM
IC75 (Mk-CFC): 9.22 µM
IC50 (LoVo): 8.9 µM
Rb protein expression (Rb, pRb): a decrease but not the complete disappearance of Rb protein and E2F1 expression
Mean body weight ([2]; Day 14): 22.13 g
Mean body weight ([2]; Day 16): 23.39 g
Mean body weight ([2]; Day 19): 25.72 g
Mean body weight ([2]; Day 21): 24.35 g
Mean body weight ([2]; Day 23): 25.46 g
Mean body weight ([2]; Day 26): 28.52 g
changes in body weights compared to control ([2]; UNBS5162 10 mg/kg i.v. 5i×3w, alone or with 1×10 gray): No significant changes in body weights
cell dynamics (videomicroscopy) (DU-145 [3]): induced no detectable changes
concentrations that were toxic (inhibited proliferation) [4]: higher than 1 μM
LC3-II protein (marker of autophagy) (LC3-II): induced the up-regulation of LC3-II protein
IC50 (HCT-15): 28.8 µM
IC50 (DU-145 [5]): 16 µM
EHF mRNA expression ([6]; 1 μM): markedly decreased EHF mRNA expression in a transient manner
EHF mRNA levels ([6]; 10 μM, 72 hours after treatment): marked sustained decrease in EHF mRNA levels
Emax at 0.1 µM (U-373 MG; 22 hours on the 25% of the most motile cells): -29%
Emax at 0.1 µM (U-373 MG; 22 hours on the 50% of the most motile cells): -24%
Emax (U-373 MG; 22 hours on the 100% of cells, at the 10^−7 M): -20%
